{
  "source": "PubChem BioAssay (NCI)",
  "assay_in_all_cases": "NCI tumour cell line growth inhibition, 48 h",
  "key": {"NCI-H460 lung": {"system": "NCI-H460 lung"}, "SF-268 CNS": {"system": "SF-268 CNS"}, "NCI/ADR-RES ovarian": {"system": "NCI/ADR-RES ovarian"}, "OVCAR-5 ovarian": {"system": "OVCAR-5 ovarian"}, "SR leukemia": {"system": "SR leukemia"}, "HCT-116 colon": {"system": "HCT-116 colon"}, "HCC-2998 colon": {"system": "HCC-2998 colon"}, "K-562 leukemia": {"system": "K-562 leukemia"}, "NCI-H23 lung": {"system": "NCI-H23 lung"}, "M14 melanoma": {"system": "M14 melanoma"}, "U251 CNS": {"system": "U251 CNS"}, "MDA-MB-231 breast": {"system": "MDA-MB-231 breast"}, "SK-MEL-5 melanoma": {"system": "SK-MEL-5 melanoma"}, "MCF7 breast": {"system": "MCF7 breast"}, "786-0 renal": {"system": "786-0 renal"}, "SF-295 CNS": {"system": "SF-295 CNS"}, "PC-3 prostate": {"system": "PC-3 prostate"}, "NCI-H522 lung": {"system": "NCI-H522 lung"}, "OVCAR-4 ovarian": {"system": "OVCAR-4 ovarian"}, "SK-MEL-2 melanoma": {"system": "SK-MEL-2 melanoma"}, "A549 NSCLC": {"system": "A549 NSCLC"}, "OVCAR-3 ovarian": {"system": "OVCAR-3 ovarian"}, "SF-539 CNS": {"system": "SF-539 CNS"}, "HL-60(TB) leukemia": {"system": "HL-60(TB) leukemia"}, "NCI-H226 lung": {"system": "NCI-H226 lung"}, "SNB-75 CNS": {"system": "SNB-75 CNS"}, "UACC-62 melanoma": {"system": "UACC-62 melanoma"}, "DU-145 prostate": {"system": "DU-145 prostate"}, "HS 578T breast": {"system": "HS 578T breast"}},
  "note": "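Dose response: 5 concentrations. Exposure: 48 h. Format: 96-well plates. Endpoint: linear interpolation; highest concentration if not reached. At the GI50, growth is halved. TGI is the concentration that stops growth completely.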",
  "data": [
    {"compound": "CN(C)c1ccc(N2Cc3ccccc3OC3=C2C(=O)c2c(O)ccc(O)c2C3=O)cn1", "values": [
      {"measurement": "GI50", "setting": "NCI-H460 lung", "result": 1280, "unit": "nM"},
      {"measurement": "TGI", "setting": "NCI-H460 lung", "result": 3670, "unit": "nM"},
      {"measurement": "GI50", "setting": "SF-268 CNS", "result": 370, "unit": "nM"},
      {"measurement": "TGI", "setting": "SF-268 CNS", "result": 1590, "unit": "nM"},
      {"measurement": "GI50", "setting": "NCI/ADR-RES ovarian", "result": 284, "unit": "nM"},
      {"measurement": "GI50", "setting": "OVCAR-5 ovarian", "result": 510, "unit": "nM"},
      {"measurement": "TGI", "setting": "OVCAR-5 ovarian", "result": 1560, "unit": "nM"},
      {"measurement": "GI50", "setting": "SR leukemia", "result": 127, "unit": "nM"},
      {"measurement": "TGI", "setting": "SR leukemia", "result": "> 100000", "unit": "nM"},
      {"measurement": "GI50", "setting": "HCT-116 colon", "result": 124, "unit": "nM"},
      {"measurement": "TGI", "setting": "HCT-116 colon", "result": 288, "unit": "nM"},
      {"measurement": "GI50", "setting": "HCC-2998 colon", "result": 1180, "unit": "nM"},
      {"measurement": "TGI", "setting": "HCC-2998 colon", "result": 2580, "unit": "nM"},
      {"measurement": "GI50", "setting": "K-562 leukemia", "result": 177, "unit": "nM"},
      {"measurement": "TGI", "setting": "K-562 leukemia", "result": 1580, "unit": "nM"},
      {"measurement": "GI50", "setting": "NCI-H23 lung", "result": 277, "unit": "nM"},
      {"measurement": "TGI", "setting": "NCI-H23 lung", "result": 927, "unit": "nM"},
      {"measurement": "GI50", "setting": "M14 melanoma", "result": 241, "unit": "nM"},
      {"measurement": "TGI", "setting": "M14 melanoma", "result": 713, "unit": "nM"},
      {"measurement": "GI50", "setting": "U251 CNS", "result": 311, "unit": "nM"},
      {"measurement": "TGI", "setting": "U251 CNS", "result": 1200, "unit": "nM"},
      {"measurement": "GI50", "setting": "MDA-MB-231 breast", "result": 234, "unit": "nM"},
      {"measurement": "TGI", "setting": "MDA-MB-231 breast", "result": 745, "unit": "nM"},
      {"measurement": "GI50", "setting": "SK-MEL-5 melanoma", "result": 722, "unit": "nM"},
      {"measurement": "TGI", "setting": "SK-MEL-5 melanoma", "result": 2010, "unit": "nM"},
      {"measurement": "GI50", "setting": "MCF7 breast", "result": 150, "unit": "nM"},
      {"measurement": "TGI", "setting": "MCF7 breast", "result": 456, "unit": "nM"},
      {"measurement": "GI50", "setting": "786-0 renal", "result": 204, "unit": "nM"},
      {"measurement": "TGI", "setting": "786-0 renal", "result": 423, "unit": "nM"},
      {"measurement": "GI50", "setting": "SF-295 CNS", "result": 1800, "unit": "nM"},
      {"measurement": "TGI", "setting": "SF-295 CNS", "result": 4320, "unit": "nM"},
      {"measurement": "GI50", "setting": "PC-3 prostate", "result": 221, "unit": "nM"},
      {"measurement": "TGI", "setting": "PC-3 prostate", "result": 867, "unit": "nM"},
      {"measurement": "GI50", "setting": "NCI-H522 lung", "result": 53.5, "unit": "nM"},
      {"measurement": "TGI", "setting": "NCI-H522 lung", "result": 217, "unit": "nM"},
      {"measurement": "GI50", "setting": "OVCAR-4 ovarian", "result": 330, "unit": "nM"},
      {"measurement": "TGI", "setting": "OVCAR-4 ovarian", "result": 1290, "unit": "nM"},
      {"measurement": "GI50", "setting": "SK-MEL-2 melanoma", "result": 541, "unit": "nM"},
      {"measurement": "TGI", "setting": "SK-MEL-2 melanoma", "result": 1490, "unit": "nM"},
      {"measurement": "GI50", "setting": "A549 NSCLC", "result": 2320, "unit": "nM"},
      {"measurement": "TGI", "setting": "A549 NSCLC", "result": 6030, "unit": "nM"},
      {"measurement": "GI50", "setting": "OVCAR-3 ovarian", "result": 233, "unit": "nM"},
      {"measurement": "TGI", "setting": "OVCAR-3 ovarian", "result": 695, "unit": "nM"},
      {"measurement": "GI50", "setting": "SF-539 CNS", "result": 225, "unit": "nM"},
      {"measurement": "TGI", "setting": "SF-539 CNS", "result": 602, "unit": "nM"},
      {"measurement": "GI50", "setting": "HL-60(TB) leukemia", "result": 147, "unit": "nM"},
      {"measurement": "TGI", "setting": "HL-60(TB) leukemia", "result": 538, "unit": "nM"},
      {"measurement": "GI50", "setting": "NCI-H226 lung", "result": 854, "unit": "nM"},
      {"measurement": "TGI", "setting": "NCI-H226 lung", "result": 3660, "unit": "nM"},
      {"measurement": "GI50", "setting": "SNB-75 CNS", "result": 769, "unit": "nM"},
      {"measurement": "TGI", "setting": "SNB-75 CNS", "result": 6930, "unit": "nM"},
      {"measurement": "GI50", "setting": "UACC-62 melanoma", "result": 211, "unit": "nM"},
      {"measurement": "TGI", "setting": "UACC-62 melanoma", "result": 638, "unit": "nM"},
      {"measurement": "GI50", "setting": "DU-145 prostate", "result": 223, "unit": "nM"},
      {"measurement": "TGI", "setting": "DU-145 prostate", "result": 510, "unit": "nM"},
      {"measurement": "GI50", "setting": "HS 578T breast", "result": 444, "unit": "nM"},
      {"measurement": "TGI", "setting": "HS 578T breast", "result": 26100, "unit": "nM"}
    ]}
  ]
}
